Source: PMC6424957 (Scientific Reports, 2019)
“And” between values parts separate entries of the source, which are not always exact repeats. Equal entries are not always repeated. Where two headings read alike, the source gives them in different places.

Tests used:
[1] = target: T1, Electrophorus electricus AChE (EeAChE) (Electrophorus electricus, UniProt O42275); test: biochemical; format: biochemical
T1 construct: from human erythrocyte and E. electricus (EeAChE) (type VI-S); purchased Sigma-Aldrich (Germany) type VI-S; host or cells: Electrophorus electricus tissue
T1 sequence (O42275 24-633): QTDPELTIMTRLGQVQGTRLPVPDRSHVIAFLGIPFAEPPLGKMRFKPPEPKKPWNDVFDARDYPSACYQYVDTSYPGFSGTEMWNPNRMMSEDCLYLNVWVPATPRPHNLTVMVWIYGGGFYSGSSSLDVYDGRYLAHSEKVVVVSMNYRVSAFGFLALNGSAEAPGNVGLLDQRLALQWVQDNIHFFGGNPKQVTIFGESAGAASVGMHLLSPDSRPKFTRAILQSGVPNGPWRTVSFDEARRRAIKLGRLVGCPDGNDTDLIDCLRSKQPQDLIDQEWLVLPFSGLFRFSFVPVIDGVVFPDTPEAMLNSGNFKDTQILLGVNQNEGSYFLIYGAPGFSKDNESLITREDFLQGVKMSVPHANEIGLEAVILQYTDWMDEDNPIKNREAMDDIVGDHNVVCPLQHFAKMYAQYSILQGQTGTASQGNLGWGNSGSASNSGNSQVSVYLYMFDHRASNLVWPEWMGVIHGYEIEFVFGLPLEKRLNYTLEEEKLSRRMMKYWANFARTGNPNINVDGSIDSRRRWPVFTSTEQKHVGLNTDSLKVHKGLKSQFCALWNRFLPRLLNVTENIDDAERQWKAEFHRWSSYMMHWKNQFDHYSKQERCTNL
Experimental: (§1) Acetylcholinesterase (AChE, EC 3.1.1.7, from human erythrocyte and E. electricus (EeAChE) (type VI-S), butyrylcholinesterase (BChE, EC 3.1.1.8, from equine serum), carboxylesterase (CaE, EC 3.1.1.1, from porcine liver), acetylthiocholine iodide (ATCh), butylthiocholine iodide (BTCh), 5,5′-dithiobis-(2-nitrobenzoic acid) (DTNB), 4-nitrophenyl acetate (4-NPA), were purchased from Sigma-Aldrich (Germany).
(§2) AChE and BChE activities were measured by the Ellman method as described earlier. The assay solution consisted of 0.1 M K/Na phosphate buffer pH 7.5, 25 °C with the addition of 0.33 mM DTNB, 0.02 unit/mL of AChE or BChE, and 1 mM of substrate (ATCh or BTCh, respectively). The assays were carried out with a reagent blank containing all components except AChE or BChE to account for non-enzymatic hydrolysis of substrate. In addition, an enzyme blank was included that contained all components except substrate to account for non-substrate sulfhydryl groups. […] The assay solution consisted of 0.1 M K/Na phosphate buffer pH 8.0, 25 °C with the addition of 1 mM 4-nitrophenyl acetate and 0.02 unit/mL of CaE. Assays were carried out with a blank containing all components except CaE.
(§3) The test compounds were dissolved in DMSO; the incubation mixture contained 2% (v/v) of the solvent. […] The test compounds were added to the assay solution and preincubated at 25°C with the enzymes for 5 min followed by the addition of substrate. A parallel control was made for the assay solution with no inhibitor. […] Each experiment was performed three times. The results were expressed as the mean ± SEM. The reaction rates in the presence and absence of inhibitor were compared, and the percent of residual enzyme activity due to the presence of test compounds was calculated.

[2] = target: T2, equine serum butyrylcholinesterase (BChE) (Equus caballus, UniProt P81908); test: biochemical; format: biochemical; details: mean ± SEM, n ≥ 3
T2 construct: butyrylcholinesterase (BChE, EC 3.1.1.8, from equine serum); purchased Sigma-Aldrich (Germany); host or cells: equine serum
T2 sequence (P81908 whole entry): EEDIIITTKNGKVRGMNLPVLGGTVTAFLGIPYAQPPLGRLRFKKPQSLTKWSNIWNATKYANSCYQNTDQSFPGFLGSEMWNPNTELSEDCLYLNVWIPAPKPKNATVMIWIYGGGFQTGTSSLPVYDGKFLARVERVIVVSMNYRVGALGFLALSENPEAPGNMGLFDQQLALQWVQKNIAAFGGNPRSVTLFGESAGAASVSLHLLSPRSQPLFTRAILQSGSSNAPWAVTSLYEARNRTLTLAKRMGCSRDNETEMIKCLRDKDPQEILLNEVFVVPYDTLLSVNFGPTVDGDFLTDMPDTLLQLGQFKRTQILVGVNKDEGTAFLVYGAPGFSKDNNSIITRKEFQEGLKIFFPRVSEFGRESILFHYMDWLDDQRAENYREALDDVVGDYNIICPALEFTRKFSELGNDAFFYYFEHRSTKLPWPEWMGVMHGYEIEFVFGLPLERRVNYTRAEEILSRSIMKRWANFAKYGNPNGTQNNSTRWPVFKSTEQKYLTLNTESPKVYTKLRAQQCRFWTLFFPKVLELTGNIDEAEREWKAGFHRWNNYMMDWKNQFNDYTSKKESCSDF
Experimental: as §1, §2, §3

[3] = target: T3, human erythrocyte acetylcholinesterase (AChE) (Homo sapiens, UniProt P22303); test: biochemical; format: biochemical; details: mean ± SEM, n ≥ 3
T3 construct: Acetylcholinesterase (AChE, EC 3.1.1.7, from human erythrocyte); purchased Sigma-Aldrich (Germany); host or cells: human erythrocytes
T3 sequence (P22303 32-617 isoform P22303-2 limits assumed): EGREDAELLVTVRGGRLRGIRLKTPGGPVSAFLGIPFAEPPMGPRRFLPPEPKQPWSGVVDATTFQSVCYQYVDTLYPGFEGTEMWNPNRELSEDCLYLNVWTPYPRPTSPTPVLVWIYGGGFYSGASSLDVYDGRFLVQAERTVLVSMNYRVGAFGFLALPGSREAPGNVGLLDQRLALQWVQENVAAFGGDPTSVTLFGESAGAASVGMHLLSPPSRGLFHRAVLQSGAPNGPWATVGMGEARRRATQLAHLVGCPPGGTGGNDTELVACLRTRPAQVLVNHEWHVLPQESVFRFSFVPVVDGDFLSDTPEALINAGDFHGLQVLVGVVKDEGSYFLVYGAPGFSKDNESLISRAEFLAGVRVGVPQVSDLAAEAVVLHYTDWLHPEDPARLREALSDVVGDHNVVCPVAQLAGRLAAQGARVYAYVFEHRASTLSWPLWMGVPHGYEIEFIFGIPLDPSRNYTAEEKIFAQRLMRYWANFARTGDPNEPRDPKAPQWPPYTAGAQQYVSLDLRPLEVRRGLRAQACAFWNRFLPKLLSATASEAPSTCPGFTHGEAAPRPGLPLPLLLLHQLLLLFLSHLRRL
Experimental: as §1, §2, §3

[4] = ABTS radical cation scavenging assay; details: for ABTS·+ scavenging activity, TEAC value: Trolox equivalent antioxidant capacity, ratio of slopes compound/Trolox; for ABTS·+ scavenging activity, TEAC value / IC50: 1 h incubation; for IC50: concentration reducing ABTS·+ by 50%; for radical-scavenging activity, ABTS method: result in words
Experimental: This assay is based on the production of a stable dark green ABTS cation-radical (ABTS^·+) by incubating ABTS ([2,2′-azino-bis(3-eth-ylbenzothiazoline-6-sulfonic acid diammonium salt)) with potassium persulfate. […] The ABTS radical-scavenging activity of the compounds was measured according to an established method[66] with some modifications, at 30 °С in the dark; incubation time was 1 hour. […] The results were expressed as TEAC values (Trolox equivalent antioxidant capacity) calculated by dividing the slope of ABTS^·+ concentration decrease versus the antioxidant concentration by the slope of the Trolox plot.
Radical scavenging activity of the compounds was assessed using an ABTS radical decolorization assay[66] with some minor modifications. ABTS (2,2′-azino-bis-(3-ethylbenzothiazoline-6-sulfonic acid) diammonium salt) was purchased from TCI (Tokyo, Japan); potassium persulfate (di-potassium peroxodisulfate) and Trolox (6-hydroxy-2,5,7,8-tetramethychroman-2-carboxylic acid were obtained from Sigma-Aldrich Chemical Co. (St. Louis, MO, USA). Ethanol was HPLC grade. Aqueous solutions were prepared using deionized water.
Trolox was used as the antioxidant standard. A 5 mM solution of Trolox was prepared in DMSO for use as stock. Fresh working solutions of known concentrations (1–100 μM) were prepared on the day of experiments and used for calibration and as positive controls for ABTS radical cation (ABTS^•+) scavenging activity. ABTS was dissolved in deionized water to a 7 mM concentration. […] Fresh working ABTS^•+ solution was prepared for each assay.
The radical scavenging capacity of the compounds was analyzed by mixing 10 μl of compound with 240 μl of ABTS^•+ working solution. […] Ethanol blanks were run in each assay. Values were obtained from three replicates of each sample and three independent experiments.
Antioxidant capacity as a Trolox equivalent (TEAC values) was determined as the ratio between the slopes obtained from the linear correlation for concentrations of test compounds and Trolox with absorbance of ABTS radical.

[5] = Oxygen radical absorbance capacity assay (ORAC-FL); details: for ORAC TE value: ORAC-FL, AAPH, fluorescein, 37 °C, pH 7.4, Trolox taken as 1; for radical-scavenging activity, ORAC-FL method: result in words
Experimental: The ability of the conjugates to reduce the amount of peroxyl radicals as another characteristic of the antioxidant activity of the compounds was determined using the oxygen radical absorbance capacity by fluorescence (ORAC-FL) method using fluorescein (FL) as a fluorescent probe. The method is based on measuring the decrease in the intensity of fluorescence with time, which characterizes the degree of decay of the fluorescent probe under the influence of peroxyl radicals. In the presence of antioxidants, the degree of decay of the fluorescent probe decreases and, accordingly, the fluorescence time increases.
The ability of compounds to scavenge peroxyl radicals was characterized by the value of the Trolox equivalent (TE, μmol of Trolox per μmol of the tested compound), which is equal to the ratio of the Trolox concentration to the tested compound concentration having the same fluorescence intensity. Peroxyl radical scavenging capacity of Trolox is taken as one (1)[67],[68].
2,2′-Azobis-(amidinopropane) dihydrochloride (AAPH), (±)-6-hydroxy-2,5,7,8-tetramethylchromane-2-carboxylic acid (Trolox) and fluorescein (FL) were purchased from Sigma-Aldrich. The reaction was carried out at 37 °C in 75 mM K,Na phosphate buffer (pH 7.4), and the final reaction mixture was 200 µL. The tested compounds and Trolox standard were dissolved in DMSO to 10 mM and further diluted in 75 mM K,Na phosphate buffer (pH 7.4). […] The blank was composed of 20 µL 75 mM K,Na phosphate buffer (pH 7.4) containing 2% (v/v) DMSO, 120 µL FL and 60 µL AAPH, and was added in each assay. Antioxidant (the test compound or Trolox, 20 µL) and FL (120 µL, final concentration: 70 nM) solutions were placed in a black 96-well microplate and were pre-incubated for 15 min at 37 °C. AAPH solution (60 µL, final concentration 12 mM) was then added rapidly using a multichannel pipette. The fluorescence was recorded every minute for 100 min. A Trolox standard curve was also obtained in each assay. All reactions were carried out in triplicate and at least three different assays were performed for each sample.
Antioxidant curves (fluorescence vs. time) were first normalized to the curve of the blank (without antioxidant) corresponding to the same assay, and the area under the fluorescence decay curve (AUC) was calculated. The net AUC corresponding to a sample was calculated by subtracting the AUC corresponding to the blank. Regression equations were calculated by plotting the net AUC against the antioxidant concentration. The ORAC value was obtained by dividing the slope of the latter curve by the slope of the Trolox curve obtained in the same assay. […] Data were expressed as means ± SEM.

[6] = target: T4, peripheral anionic site (PAS) of EeAChE (Electrophorus electricus, UniProt O42275); format: binding; details: EeAChE 7 μM, propidium iodide 8 μM; for % Displacement of propidium iodide, 3 µM: compound 3 µM; for % Displacement of propidium iodide, 20 µM: compound 20 µM
T4 construct: from human erythrocyte and E. electricus (EeAChE) (type VI-S); purchased Sigma-Aldrich (Germany) type VI-S; host or cells: Electrophorus electricus tissue
T4 sequence (O42275 24-633): as the sequence (O42275 24-633) above
Source text: The fluorescent assay used to evaluate competitive propidium iodide displacement from the PAS of AChE is commonly used as primary screening method of AChE pro-aggregation activity inhibitors. Propidium iodide is a selective ligand for the PAS of AChE responsible for Aβ binding.
EeAChE was used owing to its high degree of purification, high activity, and lower cost than human AChE. […] The fluorescence intensity of propidium iodide bound with AChE increases several times.
To determine the degree of displacement (% displacement) of propidium iodide from the PAS of AChE, EeAChE (final concentration 7 μM) was incubated with the test compound at a concentration of 3 and 20 μM in 1 mM Tris-HCl buffer pH 8.0, 25 °C for 15 min. Then, propidium iodide solution (final concentration 8 μM) was added, the samples were incubated for 15 min and the fluorescence spectrum (530 nm (excitation) and 600 nm (emission)) was taken. Donepezil and tacrine were used as reference compounds. The blank contained propidium iodide of the same concentration in 1 mM Tris-HCl buffer pH 8.0. The measurements were carried out in triplicate on a microplate reader FLUOStar Optima (BMG Labtech Germany).
The degree of displacement (% displacement) of propidium iodide from the peripheral anionic site of AChE was calculated by the following formula: %Displacement=100−(IFAChE+Propidium+inhibitor/IFAChE+Propidium)[…], where IFAChE + Propidium is the fluorescence intensity of the propidium associated with AChE in the absence of the test compound (taken as 100%), and IFAChE + Propidium + inhibitor is the fluorescence intensity of the propidium associated with AChE in the presence of the test compound.

[7] = test system: isolated rat liver mitochondria; test: Restoration of mitochondrial membrane potential after rotenone-induced depolarization; format: biochemical; details: 3 μM compound
Source text: Therefore, we examined the ability of MB, MBH2, and compound 3 to restore membrane potential after depolarization with rotenone. […] It is important to note that successive additions of calcium and the uncoupler carbonyl cyanide m-chlorophenyl hydrazone (CCCP) each caused mitochondrial depolarization (Fig. 6). […]

[8] = mean ± SEM, n ≥ 3, read-out: EeAChE IC50

Structure (SMILES)	IC50 [1, 8] [µM]	IC50 [2] [µM]	IC50 [3] [µM]	ABTS·+ scavenging activity, TEAC value [4]	IC50 [4] [µM]	ORAC TE value [5] [µmol Trolox/ µmol comp.]	% Displacement of propidium iodide, 3 µM [6]	% Displacement of propidium iodide, 20 µM [6]	recovery of ΔΨm after rotenone-induced depolarization [7]	IC50 [1] [µM]	radical-scavenging activity, ABTS method [4]	radical-scavenging activity, ORAC-FL method [5]
CN1CCc2c(c3ccccc3n2CCC(=O)N2c3ccc(N(C)C)cc3Sc3cc(N(C)C)ccc32)C1.Cl.Cl.Cl [Compound 1]	0.83 ± 0.03	5.94 ± 0.55	3.17 ± 0.13	0.63 ± 0.045	35.4 ± 3.4	7.28 ± 0.65	–	–	–	–	–	–
CCN1CCc2c(c3ccccc3n2CCC(=O)N2c3ccc(N(C)C)cc3Sc3cc(N(C)C)ccc32)C1.Cl.Cl.Cl [Compound 2]	0.67 ± 0.04	2.53 ± 0.22	2.95 ± 0.07	1.03 ± 0.07	19.1 ± 1.52	8.80 ± 0.96	12.9 ± 1.1%	37.1 ± 2.0%	–	–	–	–
Cc1ccc2c(c1)c1c(n2CCC(=O)N2c3ccc(N(C)C)cc3Sc3cc(N(C)C)ccc32)CCN(C)C1 [Compound 3]	1.47 ± 0.08	1.82 ± 0.14	1.73 ± 0.11	0.79 ± 0.06	27.5 ± 1.64	7.44 ± 0.74	8.1 ± 0.7%	35.6 ± 1.5%	recovered	–	–	–
CCN1CCc2c(c3cc(C)ccc3n2CCC(=O)N2c3ccc(N(C)C)cc3Sc3cc(N(C)C)ccc32)C1.Cl.Cl.Cl [Compound 4]	0.65 ± 0.05	17.9 ± 1.4	4.03 ± 0.36	0.99 ± 0.08	20.5 ± 2.05	9.82 ± 0.79	11.8 ± 0.6%	37.6 ± 1.8%	–	–	–	–
CCCN1CCc2c(c3cc(C)ccc3n2CCC(=O)N2c3ccc(N(C)C)cc3Sc3cc(N(C)C)ccc32)C1.Cl.Cl.Cl [Compound 5]	0.8 ± 0.07	8.42 ± 0.83	3.95 ± 0.21	0.99 ± 0.05	19.6 ± 1.82	7.70 ± 0.84	14.2 ± 0.9%	35.1 ± 0.9%	–	–	–	–
Cc1ccc2c(c1)c1c(n2CCC(=O)N2c3ccc(N(C)C)cc3Sc3cc(N(C)C)ccc32)CCN(C(C)C)C1.Cl.Cl.Cl [Compound 6]	1.07 ± 0.08	0.97 ± 0.05	7.37 ± 0.42	0.96 ± 0.07	21.2 ± 1.75	7.12 ± 0.64	7.7 ± 0.5%	30.0 ± 0.9%	–	–	–	–
CN1CCc2c(c3cc(F)ccc3n2CCC(=O)N2c3ccc(N(C)C)cc3Sc3cc(N(C)C)ccc32)C1 [Compound 7]	2.09 ± 0.19	10.5 ± 0.9	6.86 ± 0.32	1.08 ± 0.08	19 ± 2.28	10.93 ± 0.98	6.7 ± 0.5%	29.8 ± 2.1%	–	–	–	–
CN(C)c1ccc2nc3ccc(=[N+](C)C)cc-3sc2c1 [MB, methylene blue, reference compound]	–	11.1 ± 0.1	–	–	–	–	20% and 20.9 ± 1.9%	40% and 40.8 ± 3.7%	recovered	0.21 ± 0.02	not detectable	not detectable
CN(C)c1ccc2c(c1)Sc1cc(N(C)C)ccc1N2 [MBH2, leucomethylene blue, reference compound]	–	10.7 ± 0.2	1.76 ± 0.09	–	–	–	17.7 ± 1.8%	36.9 ± 3.3%	recovered	0.28 ± 0.02	not detectable	not detectable
